The text below walks through data of patent US20200237909A1, “METHODS OF TREATING OR PREVENTING BREAST CANCER METASTASES USING ANTIBODIES TO JAGGED1 AND CHEMOTHERAPEUTIC AGENTS” (The Trustees of Princeton University, priority 2017, published 2020).

The subject of assay [1] is MCF7, SCP28 and SUM1315-M1B1. Briefly: Bone metastatic seeding after cisplatin pre-treatment (IIA injection, BLI). The class given is in vivo, athymic nude mice. To be noted: cisplatin one day before tumor cell injection, 4 days after injection. Here is the method: (§1) FIG. 5. Chemotherapy induces Jagged1 expression in osteoblast lineage cells. (A) Jagged1 mRNA expression in osteoblast MC3T3-E1-Clone #4 osteoblast cells and mesenchymal stem cells (MSC), HPMECL endothelial cells (endo), RAW264.7 pre-osteoclast cells, and SCP28 and SUM1315-M1B1 breast tumor cells 48 hr post-treatment with 25 nM paclitaxel or 10 μM cisplatin. (B) Athymic nude mice were i.v. injected with PBS or cisplatin and euthanized 48 hr later. Hind limb bones were collected for IF staining against Alp (green) and Jagged1 (red). Nuclei were counter-stained with DAPI (blue). (C-E) Athymic nude mice were treated with either PBS or cisplatin on Day 0. One day after the pre-treatment, MCF7 (C), SUM1315-M1B1 (D) or SCP28 (E) cells were delivered locally to the hind limbs of these mice by IIA injection. BLI imaging and quantification of BLI signal at Day 4. (F) Mice from experiment in E were euthanized after BLI imaging at Day 4. Hind limbs were fixed and processed for IF imaging of GFP-expressing tumor cells (green) and ALP positive osteoblasts (red). Size bar: 80 μm. In A: n=3. *p<0.05 by Student's t-test. In C-E: n=5. *p<0.05 by Student's t-test. #: statistically insignificant.
To directly test the effect of increased Jagged1 expression in osteoblasts on bone metastasis seeding and progression, two models were utilized. […]

A further assay has as its system SCP28. The assay is described as follows: Cleaved PARP and cleaved caspase-3 immunoblotting after cisplatin. The class given is cell-based, human. To be noted: SCP28 single-cultured cells, 72 hours post-treatment. The protocol:
FIG. 7. Pro-survival effect of osteoblast Jagged1 on cancer cells can be blocked by 15D11. (A) 3-D tumorsphere culture of MCF7, SCP28, and SUM1315-M1B1 cells, alone or in co-cultured with osteoblast cells, were treated with indicated concentrations of cisplatin or docetaxel. Two days after the chemotherapy, the surviving tumor spheres were counted under the fluorescent microscope. n=3. *p<0.05 by Student's t-test. (B) Cell culture of SCP28 cells alone or in co-culture with MC3T3-E1 pre-osteoblast cells were treated with PBS control or cisplatin. Protein samples were collected at 6 hr, 24 hr, and 72 hr later. Cleaved PARP and cleaved caspase-3 were determined by immunoblotting. # marks full length PARP and * marks cleaved PARP. […] Hind limb bones were fixed and cryo-sectioned for IF staining against CC3 for apoptotic cells and GFP for tumor cells (E), and CC3 positive apoptotic cells among GFP-positive tumor cells were quantified in F. Size bar: 25 μm. n=5. **p<0.01 by Student's t-test. […] Tumor cells in the bone were quantified based on BLI imaging at Day 1 and Day 4. […]
To mimic chemoresistance and tumor seeding effects by osteoblast lineage cells in vitro, an in vitro 3D tumor-stroma co-culture assay (Wang et al., 2015) was adapted. […] Cleaved PARP and cleaved caspase-3 (CC3) status were analyzed by immuno-blotting at different time points after cisplatin treatment. […]

The subject of another assay is Jagged1 expression. Briefly: Jagged1 mRNA expression in cell lines after chemotherapy agents. The class given is cell-based. The conditions noted are these: 48 hr; for Jagged1 expression: MC3T3-E1 pre-osteoblast cells and MSCs, 25 nM paclitaxel or 10 μM cisplatin; for Jagged1 induction: endothelial cells, RAW 264.7 pre-osteoclasts, SCP28 and SUM1315-M1B1 tumor cells. The protocol:
as §1
The possibility that chemotherapy agents may induce Jagged1 expression in either tumor cells or in the bone stromal cells was considered. […] Key stromal cell types in bone metastasis include osteoclasts, osteoblasts and their progenitors (such as mesenchymal stem cells (MSCs)), and endothelial cells. Whether Jagged1 could be induced in these cells and various breast cancer cell lines upon treatment of two different chemotherapy agents, paclitaxel and cisplatin, which are commonly used in the treatment of breast cancer, was tested.
Total RNAs were isolated from cells using RNeasy kit (Qiagen) following manufacturer's instructions. RNAs were reverse transcribed into cDNAs by using Superscript III reverse transcription kit (Invitrogen). Real-time RT-PCR was performed on ABI 7900 96 HT series PCR machine (Applied Biosystem) using SYBR Green Supermix (Bio-Rad Laboratories). The gene-specific primer sets were used at a final concentration of 0.5 μM. All real-time RT-PCR assays were performed in duplicate in at least two independent experiments. Relative expression values of each target gene were normalized to GAPDH mRNA level.

In another assay the test system is SCP28-Jagged1 cells. Briefly: SCP28-Jagged1 bone metastasis, late treatment with 15D11 and paclitaxel. The assay is classed as in vivo, mice. To be noted: in words.

The structures appear in SMILES notation.

Description for SCP28-Jagged1 cells: To evaluate the combinatorial effect of 15D11 with conventional chemotherapy, we treated bone metastasis generated by SCP28-Jagged1 cells with 15D11 and paclitaxel, using the late treatment protocol (treatment initiated 1 week after IC injection) (FIG. 3A). […] Mice were treated with IgG (as negative control), 15D11, paclitaxel, or both, one week after IC injection of SCP28-Jagged1 to establish bone metastases.
For experimental bone metastasis, three models were used using intra-cardiac (IC), intra-iliac artery (IIA), and intra-tibia (i.t.) injection methods, as previously described (Andersen et al., 2003; Sethi et al., 2011; Wang et al., 2015). Bone metastasis burden was monitored by weekly BLI and X-ray imaging. At the experimental endpoint, mice were euthanized for bone histology analysis and half of the bone samples were used for μCT imaging and bone density quantification.
The initial treatment is either one day before tumor cell injection or one week after tumor cell injection as described in each experiment. For IgG or 15D11 antibody treatment, mice were i.p. injected at the dosing of 10 mg/kg, twice a week. […] For paclitaxel treatment, paclitaxol powder was first dissolved in 95% ethanol, sonicated and shaken overnight, before mixing 1:1 with cremophor (Sigma Catalog#:769193-1KG) to reach the final concentration of 20 mg/ml. […]

For `N.N.[Cl][Pt][Cl]` [cisplatin], in assay [1], the “bone metastatic seeding (BLI)” value is “significant increase”. Moreover, the “cleaved PARP and CC3” value in the assay with SCP28 is listed as “strong induction”. Besides, in the assay on Jagged1 expression, the Jagged1 expression result is “significantly increased” and the Jagged1 induction result is given as “no significant induction”.
`CC(=O)O[C@H]1C(=O)[C@@]2(C)[C@H]([C@H](OC(=O)c3ccccc3)[C@]3(O)C[C@H](OC(=O)[C@H](O)[C@@H](NC(=O)c4ccccc4)c4ccccc4)C(C)=C1C3(C)C)[C@]1(OC(C)=O)CO[C@@H]1C[C@@H]2O` [paclitaxel]: in the assay with Jagged1 expression, the Jagged1 expression result is reported as “significantly increased” and the Jagged1 induction entry is “no significant induction”. Also, the “tumor burden at the end point” value in the assay on SCP28-Jagged1 cells is “only a mild reduction of tumor burden”.
